Patent US6403139B1, “Process for treating fruit and vegetables using tocopherols as antioxidants” (Xeda International, priority 1999, dated 2002)

System: Granny Smith apples
Test: Anti-scald treatment on apples, treating composition applied for 3 minutes by immersion or spraying, then 8 days storage at 20° C.
Description: The examples which follow illustrate the invention in further detail. In these examples, the treating composition, preheated to 50° C., is applied for 3 minutes to Granny Smith apples, by immersion or spraying. Treating composition (Composition A) consists of water and 1500 ppm of α-tocopherol. The treatment is carried out by applying the treating composition, brought to 50° C., to the apples for 3 minutes. The treated apples are then stored at ambient temperature (20° C.) for 8 days. The proportion of healthy apples, the proportion of apples for which less than 1 cm^2 of surface area is deteriorated by scald, and the proportion of apples for which more than 1 cm^2 of surface area is affected are then quantified. The apples are treated under the same conditions as in Example 1. By way of additional comparison, the same amount of apples was treated with composition D maintained at ambient temperature (i.e. between 20 and 22° C.). The apples thus treated were then stored for 8 days at ambient temperature (20° C.).

For `Cc1c(C)c2c(c(C)c1O)CC[C@@](C)(CCC[C@H](C)CCC[C@H](C)CCCC(C)C)O2` [vitamin e, 5,7,8-trimethyltocol], the “antioxidant activity at ambient temperature” value was “virtually zero”.
